The values that follow come from patent publication US9382245B2, “Compounds and methods for treating HIV infections” (priority 2013, dated 2016).

Data set [1] concerns human MT-2 T-cells.
Data set [2] is described as follows: in vitro.
The conditions of data set [3]: Table 2, cited from earlier work.
Data set [4] has as its system IIIB strain of HIV-1 (wild-type). The data set can be described thus: microbe, parasite or virus in culture. In kind it is cell-based.
The nature of data set [5]: Aqueous solubility, shake-flask procedure. The note with it: for solubility at 48 h: Britton-Robinson buffer, 25 °C, pH 6.5, aqueous buffer, thermodynamic from solid. It counts as physicochemical. As to the method:
Poor solubility, which has been a problem for many NNRTIs, often leads too low bioavailability, difficulties in formulation, and high dosages.^6,32,33 The issue reflects the hydrophobic nature of the NNRTI binding site. In the design of the catechol diethers, attention was paid to having both good potency and aqueous solubility. In our laboratory, solubilities are measured using a shake-flask procedure.^6,34 The compounds are dissolved in Britton-Robinson buffer and stirred in vials for 48 hours at 25° C. The pH of the buffer solutions is 6.5 as measured by a Corning General Purpose pH Combination probe (4136L21).

Where [6] appears, read: Table 2, pH 6.5, Britton-Robinson buffer, 48 hours at 25° C., read-out: S, aqueous solubility.

Where two headings read alike, the source gives them in different places. Marks after values point to notes of the source that are not given here.

As for `Cc1ccnc2c1NC(=O)c1cccnc1N2C1CC1` [nevirapine, reference compound], the CC50 is above 100 µM in data set [1] (Table 3, 50% inhibition of MT-2 cell growth); above 100 µM in data set [1] (Table 4, 50% inhibition of MT-2 cell growth); above 100 µM in data set [2]. Besides, the “S, aqueous solubility” value in data set [3] (Ref. 35) was 167^a μg/mL.

Take `O=C1Nc2ccc(Cl)cc2[C@@](C#CC2CC2)(C(F)(F)F)O1` [efavirenz, reference compound]: in data set [4] (Human immunodeficiency virus 1, IIIB, MT2, read-out: WT EC50), the EC50 was determined as 0.002 µM.

On to `Cc1cc(C#N)cc(C)c1Oc1nc(Nc2ccc(C#N)cc2)nc(N)c1Br` [etravirine], for which, in data set [3] (Ref. 36), the “S, aqueous solubility” value was <<1^b μg/mL.

Turning to `N#C/C=C/c1cc(Cl)cc(Oc2ccccc2OCCn2ccc(=O)[nH]c2=O)c1` [1c, (E)-3-(3-chloro-5-(2-(2-(2,4-dioxo-3,4-dihydropyrimidin-1(2H)-yl)ethoxy)phenoxy)phenyl)acrylonitrile], the solubility at 48 h in data set [5] (setting [6]) turned out to be 510 µg/mL; in data set [5] (shake-flask, pH 6.5, read-out: aqueous solubility) it was 510 µg/mL. The compound also registered a CC50 in data set [1] (human) of 18 µM.

Take `O=c1ccn(CCOc2ccccc2Oc2cccc3ccccc23)c(=O)[nH]1` [14a, 1-(2-(2-(naphthalen-1-yloxy)phenoxy)ethyl)pyrimidine-2,4(1H,3H)-dione]: in data set [4] (14a compared with 14e), the “fold less active, WT” value was found to be 100 fold. This compound had a CC50 in data set [1] (human) of 80 µM.

As for `N#Cc1ccc2c(Oc3ccccc3OCCn3ccc(=O)[nH]c3=O)cccc2c1` [14e, 5-(2-(2-(2,4-dioxo-3,4-dihydropyrimidin-1(2H)-yl)ethoxy)phenoxy)-2-naphthonitrile], the fold less soluble in data set [5] (14e compared with indolizine 10b) turned out to be 10 fold. Besides, in data set [5] (14e over etravirine and rilpivirine), the “fold improvement in solubility” value is recorded as “ca. 40 fold”. Further, in data set [5] (setting [6]), the solubility at 48 h came out at 4.3 µg/mL. Further, the CC50 in data set [1] (human) and in data set [2] (human) was above 100 µM each time.

Consider `N#Cc1cc2cccc(Oc3ccc(F)cc3OCCn3ccc(=O)[nH]c3=O)n2c1` [11a, 5-(2-(2-(2,4-dioxo-3,4-dihydropyrimidin-1(2H)-yl)ethoxy)-4-fluorophenoxy)indolizine-2-carbonitrile], for which, in data set [4] (11a compared with its isomer 10f), the “fold less active, WT” value came to 6 fold. The compound further returned a CC50 in data set [2] (human) above 100 µM.

As a reminder, the EC50 is the concentration at which the effect is half-maximal. By solubility is commonly meant how much of the substance goes into solution per volume.
